Laboratory results from patent US5972357A, “Healthy foods and cosmetics” (Kikkoman Corporation, priority 1996, dated 1999).

How the values were obtained:
bovine lens α-crystallin = experiment: α-crystallin crosslinking polymerization inhibiting activity; assay type: biochemical; conditions: 0.1 mM, 500 mM D-fructose, pH 7.4, 37° C., 2 weeks
Protocol: The effect of garcinol on bovine lens α-crystallin crosslinking polymerization reaction was evaluated. […] The gel after electrophoresis was stained with Coomassie Brilliant Blue, and the protein amounts in bands were determined with a densitometer. The crosslinking polymerization inhibiting activity of the protein was calculated from the following equation.
Protein polymerization inhibiting activity (%)=(Ps-Pc)/Pc×100
polymerization degree of protein=band density of polymerized protein/band density of monomer protein;
Ps: polymerization degree of protein in the presence of test substance;
Pc: polymerization degree of protein in the absence of test substance.

bovine serum albumin [1] = experiment: suppression of generation of reactive oxygen species in the presence of metal ion (oxidation of bovine serum albumin in Fenton reaction); assay type: biochemical; conditions: 1 mM test substance, 10 μM copper ion, 20 mM hydrogen peroxide, 4 mg/ml BSA
Protocol: The activity for suppressing the generation of reactive oxygen species in the presence of metal ion was evaluated by measuring the effect for suppressing the oxidation of bovine serum albumin by hydroxyl radical in the Fenton reaction system. That is to say, hydroxyl radical was first produced by divalent copper ion and hydrogen peroxide (Fenton reaction). Bovine serum albumin was oxidized by the hydroxyl radical, and thus carbonyl was produced. The carbonyl was reacted with 2,4-dinitrophenylhydrazine, and determined by measuring the absorbance at 365 nm. […] The ratio of decreases of absorbance was expressed as the activity for suppressing the generation of reactive oxygen species in the presence of metal ion.

bovine serum albumin [2] = experiment: Maillard reaction inhibiting activity (bovine serum albumin/D-fructose); conditions: 0.1 mM, 37° C., 5 days, pH 7.4
Protocol: A solution containing bovine serum albumin (4 mg/ml), 500 mM D-fructose and 200 mM potassium phosphate buffer (pH 7.4) was aseptically prepared. To the solution was added 0.1 mM of a test substance. The substance insoluble in water was added as an ethanolic solution so as the final concentration of ethanol to be less than 1%. After incubation of these solutions at 37° C. for 5 days, equivalent volume of a cold 10% trichloroacetic acid solution was added to the solution to precipitate proteins. The precipitate was collected by centrifugation, further washed with a cold 5% trichloroacetic acid solution, and dissolved again in a 200 mM potassium phosphate buffer. The solution was diluted appropriately with distilled water, and the fluorescence intensity at 425 nm was measured with an excitation wave length at 350 nm in a fluorescence spectrophotometer (Shimadzu Seisakusho, Ltd.). The inhibition activity was calculated from the following equation.
Inhibition activity (%)=(Fc-Fs)/(Fc-Fb)×100
Fs: fluorescence intensity in the presence of test substance;
Fc: fluorescence intensity in the absence of test substance;
Fb: fluorescence intensity in the absence of fructose.

[3] = anti-oxidation activity in a lipid oxidation process promoted by a metal ion (copper sulfate); conditions: 5 μM copper sulfate added; lesser ratio = stronger
Protocol: The anti-oxidation activities was evaluated according to the method by A. Ben Aziz et al. (see Phytochemistry, 10, 1445, 1971). That is to say, an emulsion of linoleic acid and β-carotene was first prepared with Tween 20 (Sigma) and adjusted to pH 7.0 with 0.1 M trishydroxyaminomethane-hydrochloride. To the emulsion was added 0.0005% of a substance to be tested, and the mixture was reacted at 25° C.
During the reaction, the color degradation of β-carotene in association with the autoxidation of linoleic acid was measured with the passage of time as the decreased value of the optical density at 460 nm with a spectrophotometer.
The substance to be tested was a garcinal preparation obtained in Referential Example 1, and vitamin E and (+)-catechin were used as Comparative Example. The antioxidant activity was measured as a ratio of the decreasing rate of absorbance in the presence of the substance to be tested to the decreasing rate of absorbance in the absence of the antioxidant. That is, the substance is judged to have an antioxidant activity when the ratio is less than 1, and thus it is predicated that the lesser the ratio, the stronger the antioxidant activity.
The oxidation process of linoleic acid in Experimental Example 1 is promoted by a metal ion. If 5 μM of copper sulfate is added to the reaction system, the color-degradation rate of β-carotene is promoted by about 30%. When garcinol was added to this system, the ratio of the decreasing rate of absorbance was 0.57. In this connection, it was 0.13 for vitamin E and 0.84 for (+)-catechin.

[4] = tested on: Epstein-Barr virus early antigen (EBV-EA); experiment: EBV-EA induction inhibiting test (tumor promotion inhibition); assay type: cell-based, human lymphoblasts (Raji); conditions: Homo sapiens, Raji; 8 μg/ml; 3 mM n-butyric acid, 50 nM TPA, 37° C., 48 hours; read-out: suppression of the induction of EBV-EA
Protocol: The effect of inhibiting the tumor promotion was evaluated as follows mainly according to the EBV-EA induction inhibiting test described by Y. Ito et al.
The EBV potentially infected human lymphoblasts (Raji) were first prepared in a concentration of 5×10^5 cell/ml, and cultured in an RPMI-1640 medium to which 3 mM n-butyric acid (inducer) and 50 nM TPA (12-O-tetradecanoylphorbol-13-acetate) (promoter) were added in an atmosphere of 5% carbon dioxide and 95% air under at a temperature of 37° C. for 48 hours. The cells in which EBV-EA had been induced were detected microscopically by indirect immunofluorescence with the serum of a nasopharyngeal carcinoma (NPC) patient. In this system, various concentrations (8 μg/ml, 40 μg/ml, and 200 μg/ml) of the test substance (garcinol sample shown in Referential Example 1) dissolved in DMSO (dimethylsolfoxide) were added together with the promoter to the cells. The activity of suppressing the induction of the Epstein-Barr virus early antigen was defined as the decreasing rate of the cells in which EBV-EA had been induced.

gastric ulcer = experiment: anti-ulcer test against indomethacin-induced gastric ulcer; assay type: in vivo, Wistar/ST male rats; conditions: for Length of ulcer: 30 minutes before indomethacin (50 mg/kg s.c.), control 47.75 ± 6.08; for Suppression rate: indomethacin ulcer, vs. control
Protocol: Ulcer was induced in Wistar/ST male rats having a weight of about 200 g (6 week-old) by indomethacin as a gastric ulcer inducing agent, and the anti-ulcer effects of the test samples were examined in the following six groups to which test samples were administered.
Each group comprises six rats.
______________________________________
Group 1: (control) physiological saline
Group 2: (comparative) cetraxate hydrochloride
Group 3: (the present invention) garcinol
Group 4: (the present invention) garcinol
Group 5: (the present invention) garcinol
Group 6: (the present invention) isogarcinol
In this connection, physiological saline containing 1% sodium carboxymethylcellulose was used as the control, and cetraxate hydrochloride (trade name "Neuer®S", Daiichi Pharmaceuticals Co., Ltd.) which is clinically used as an anti-ulcer agent was used as the comparative sample. The cetraxate hydrochloride insoluble in water was ground into fine powder with a mortar and a pestle and used as a suspension in a 1% sodium carboxymethylcellulose solution. Also, garcinol and isogarcinol in the form of fine powder were used as the suspensions in a 1% sodium carboxymethylcellulose solution in the concentrations which are the doses in the groups. In this connection, garcinol and isogarcinol used in the section of the present invention were those obtained in Referential Examples 1 and 2, respectively.
Experiment was carried out according to the method described by Yamahara et al. (see […] ZASSHI, 114, 401, 1994) which had been slightly modified. That is to say, indomethacin (50 mg/kg) was suspended in 1% sodium carboxymethylcellulose containing 0.1% Tween 20 (Sigma) and injected subcutaneously into the back of 24 hour fasted rats in an amount of 1 ml/rat. The samples in the six sections were orally administered at 30 minutes before administration of indomethacin. After 7 hours from the administration of indomethacin, rats were bleeded to death under anesthetization with nembutal, and stomach was isolated. A phosphate buffer (10 ml) containing 10% formalin was injected into the stomach, which was cut open after 10 minutes, and the length of lesion caused in the glandular stomach portion was defined as the lesion index, which was measured in the mm unit to evaluate the anti-ulcer effect. The suppression rate (%) in Table 1 means the value in which the difference of the length (mm) of ulcer in each group subtracted from the average length, 47.75 (mm) of ulcer in the control was divided with the average length, 47.75 (mm) of ulcer in the control. The larger the value, the stronger the anti-ulcer activity.

For `C=C(C)[C@@H](CC=C(C)C)C[C@@]12C[C@@H](CC=C(C)C)C(C)(C)[C@@](CC=C(C)C)(C(=O)C(C(=O)c3ccc(O)c(O)c3)=C1O)C2=O` [garcinol], the “protein polymerization inhibiting activity” value (bovine lens α-crystallin) was 68%, the “ratio for suppressing the oxidation of bovine serum albumin” value (bovine serum albumin [1]) was 55% and the “Maillard reaction inhibition activity” value (bovine serum albumin [2]) was 97%. The “ratio of the decreasing rate of absorbance (antioxidant activity with metal ion)” value [3] was 0.57, the inhibition at 8 µg/mL [4] was 58.2% and the Length of ulcer (gastric ulcer; 50 mg/kg oral) was 5.75 ± 6.13 mm. For the same compound, the Suppression rate (gastric ulcer; 50 mg/kg oral) was 88.0%, the Length of ulcer (gastric ulcer; 100 mg/kg oral) was 4.00 ± 4.32 mm and the Suppression rate (gastric ulcer; 100 mg/kg oral) was 91.6%. For the same compound, the Length of ulcer (gastric ulcer; 200 mg/kg oral) was 3.00 ± 5.35 mm and the Suppression rate (gastric ulcer; 200 mg/kg oral) was 93.7%.
